Tests used:
[1] = tested on: Balb/c mice challenged with LPS; assay: LPS-induced endotoxemia (sepsis) in mice; assay type: in vivo; settings: LPS 5 mg kg-1 i.p.; 2 μg/mouse i.v.
Experimental: FIG. 9: ANGPTL4 protects against LPS-induced endotoxemia by preventing vascular dysfunction and organ failure. A-B, Balb/c mice received LPS (5 mg kg-1, i.p.); 30 min after LPS challenge, mice received recombinant human ANGPTL4 (2 μg, intravenously), or vehicle as a control. A, A schematic representation of the protocol used. B, Survival curve (n=16 mice per group): **** P<0.0001; two-sided log-rank Mantel-Cox survival analysis. C,D, Balb/c mice received LPS (5 mg kg-1, i.p.); 30 min after LPS challenge, mice received nANGPTL4 (2 μg, intravenously), or vehicle as a control. C, A schematic representation of the protocol used. D, Survival curve (n=6 mice per group): ** P=0.0033; two-sided log-rank Mantel-Cox survival analysis. E, F, Balb/c mice received LPS (5 mg kg-1, i.p.); 30 min after LPS challenge, mice received Peptide 1 (2 μg, intravenously), or vehicle as a control. E, A schematic representation of the protocol used. F, Survival curve (n=6 mice per group): * P=0.0163; two-sided log-rank Mantel-Cox survival analysis. G, Balb/c mice received LPS (5 mg kg-1. i.p.): 30 min after LPS challenge, mice received recombinant human peptide P9 (2 μg. intravenously). or vehicle as a control. Survival curves (n=6 mice per group). *** P<0.001: two-sided log-rank Mantel-Cox survival analysis. H. Balb/c mice received LPS (4 mg kg-1. i.p.) together with anti-ANGPTL4 blocking antibody (10 μg kg-1. i.v) or vehicle as a control. 18 h after LPS challenge. mice were perfused with Evans blue for 1 h. were killed and brain were extracted. Quantification analysis of Evans blue extravasation (n=4 mice per group). Bars and error bars show the mean±s.e.m., respectively, from two independent experiments: *** P<0.001: NS, not significant (P>0.05) one-way ANOVA Tukey's multiple comparison test.
Female BALB/c mice, obtained from Janvier Labs, 9-10 weeks of age, were administered LPS at 5 mg/kg intraperitoneally and survival was monitored for 72 h (n=12 per group). BALB/c mice were randomly divided into 2 groups: LPS and LPS+Angptl4. Angptl4 (2 μg/mice) or vehicle (physiological saline solution) was administered intravenously 30 min after LPS challenge. In some experiments, blood serum, kidney and lung were collected at 18 h post-LPS challenge. Kidney and lungs were fixed in 4% PFA, embedded in paraffin, and 5-μm sections were cut from each block and stained with H&E. The stained sections were observed and acquired using a slide scanner (Lamina, Perkin Elmer). Analysis of the images was performed using ImageJ software (NIH).
Since severe endothelial dysfunction, leading to dysregulation of hemostasis and vascular dysfunction, is central to the progression to organ failure during sepsis, we analysed whether ANGPTL4 could play a protective role in sepsis, using a lipopolysaccharide (LPS)-induced endotoxemia (FIG. 9A). After LPS-challenge (5 mg kg-1, i.p.), all mice died within two days (FIG. 9B).

[2] = tested on: HDMECs infected with Nm 2C4.3; assay: Integrity of HDMEC monolayers infected with N. meningitidis (VE-cadherin at intercellular junctions, immunofluorescence); assay type: cell-based, human; settings: 1 μg/mL added 30 min after initiation of Nm infection, 2 h 30
Experimental: FIG. 1. Exogenous ANGPTL4 exerts protective effects on dermal microvascular endothelial cells infected by N. meningitidis. A. HDMECs were infected with Nm 2C4.3 for 30 min and treated with 1 μg/mL of recombinant human ANGPTL4 for 2 h 30. Cells were fixed and stained for cellular actin, VE-cadherin and DAPI and analyzed by fluorescent microscopy. Quantifications of VE-cadherin enrichment at intercellular junctions and of intercellular spaces area were performed on 30 fields with Image J software. Kruskal-Wallis test ** P<0.001; P<0.0001. B. HDMEC were either uninfected or infected with N. meningitidis 2C4.3 for 30 min and treated with 1 μg mL−1 of recombinant human ANGPTL4, its N-terminal portion (nANGPTL4) or its C-terminal portion (cANGPTL4) for 2 h 30. Caspase-3/7 reagent was added to detect apoptosis in real time over 9 h using the IncuCyte® Live-Cell Analysis System
FIG. 2: Vascular protection is conferred by the N-terminal part of ANGPTL4. A, Schematic representation of ANGPTL4 structure. ANGPTL4 contains a N-terminal portion (nANGPTL4, aa 26-164) linked to a C-terminal portion (cANGPTL4, aa 164-406) by a cleavable linker. nANGPTL4 contains a highly conserved lipoprotein lipase (LPL) binding domain (aa 44-55), two cysteines on position 76 and 80 involved in protein oligomerization and a coiled-coil domain (aa 100-143). The C-terminal portion encodes a fibrinogen-like domain. B, HDMECs were infected with Nm 2C4.3 for 30 min and treated with 1 μg/mL of recombinant human ANGPTL4, nANGPTL4 or cANGPTL4 for 2 h 30. Cells were fixed and stained for cellular actin, VE-cadherin and DAPI and analyzed by fluorescent microscopy. B. Quantifications of VE-cadherin enrichment at intercellular junctions and of intercellular spaces area were performed on 30 fields with Image J software. Kruskal-Wallis test ** P<0.001, *** P<0.0001 of four independent experiments performed in triplicate.
FIG. 3: Vascular protection is conferred by a novel binding motif (aa 66-80) present in the N-terminal part of ANGPTL4. A, the indicated peptides were derived from nANGPTL4. B, HDMECs were infected with Nm 2C4.3 for 30 min and treated with 1 μg/mL of each peptides. Quantifications of VE-cadherin enrichment at intercellular junctions was performed on 30 fields with Image J software.
FIG. 4: Vascular protection is conferred by interaction of nANGPTL4 with Syndecan-4. A, HDMECs were infected with Nm 2C4.3 for 30 min and treated with 1 μg/mL of recombinant human ANGPTL4, nANGPTL4 or cANGPTL4 in the absence or in the presence of anti-SDC4 antibody for 2 h 30. Cells were fixed and stained for cellular actin, VE-cadherin and DAPI and analysed by fluorescent microscopy. Quantifications of VE-cadherin enrichment at intercellular junctions and of intercellular spaces area were performed on 30 fields with Image J software. Kruskal-Wallis test ** P<0.001, **** P<0.00001, ns1 P=0.2172; ns2 P>0.999 of four independent experiments performed in triplicate. B, HDMECs were transfected with small interfering RNA (siRNA) against SDC4 or non-targeting siRNA controls for 48 h, infected with Nm 2C4.3 for 30 min and treated with 1 μg/mL of recombinant human ANGPTL4, for 2 h 30. Quantifications of VE-cadherin enrichment at intercellular junctions and of intercellular spaces area were performed on 30 fields with Image J software. Kruskal-Wallis test ** P<0.001, *** P<0.0001, of two independent experiments performed in triplicate.
The day of infection, a suspension of the bacteria from an overnight culture on GCB agar plate was adjusted to OD600=0.05 and incubated for 2 h at 37° C. in a pre-warmed cell culture medium. Cells were infected with bacteria at a multiplicity of infection (MOI) of 100 bacteria per cell (OD=0.1) for 30 minutes, washed twice to remove non-adherent bacteria and infection was allowed to proceed for various periods of time. Cells were then washed and fixed in 4% paraformaldehyde for immunofluorescence analysis. […]

[3] = tested on: SCID mice grafted with human skin infected with Nm 2C4.3; assay: Outcome of meningococcal infection in SCID mice grafted with human skin (survival, with or without antibiotics); assay type: in vivo; settings: 200 mg kg-1 cefotaxime
Experimental: A-D, SCID mice grafted with human skin were infected intravenously with Nm 2C4.3 wild-type strain (5×10^6 bacteria); 2 h after bacterial challenge, mice received recombinant human ANGPTL4 (1 μg, intravenously), cefotaxime (200 mg kg-1, intraperitoneally) alone or in combination with ANGPTL4 or vehicle as a control. 18 h following bacterial challenge, ANGPTL4 (1 μg) and cefotaxime (200 mg kg-1) were re-administered. This experiment was performed twice with n=3 or 4 mice per group, using skin from two different donors. A, A schematic representation of the protocol used in vivo. B, Bacteraemia 4, 18, 48 and 72 h post-infection (mean±s.e.m.). C, Survival curve: * P=0.0275; two-sided log-rank Mantel-Cox survival analysis. D, Thrombosis within the skin grafts at 4 h post-infection was assessed by immunofluorescence analysis and quantified as described in FIG. 8 (error bars show mean±s.e.m.; 40 vessels per mouse were analysed; n=4 mice per group; *** P<0.001; two-tailed Student's t-test.
Six-week-old CB17/Icr-Prkdcscid female mice were obtained from Janvier Labs. Human skin tissues were obtained from adult patients undergoing plastic surgery in the Service de Chirurgie Plastique et Reconstructive of the Groupe Hospitalier Saint-Joseph. […] Experimental procedures were performed as previously described in accordance with the guidelines of the Institut National de la Santé et de la Recherche Médicale and conformed to the European ethical legislation (Directive 2010/63/EU). The experimental protocol was approved by the Animal Experimentation Ethics Committee of the Université Paris Descartes (consent forms CEEA34.O.J.L.039.12 and 2018012515596498). […] A skin flap was created and a full thickness human skin graft was placed onto the wound bed. The transplants were held in place with 6-0 non-absorbable monofilament suture materials, and the flap was then sutured above the transplant. Grafted mice were infected 4-6 weeks after human skin transplantation. N. meningitidis was grown overnight at 37° C. on GCB agar plates prepared without iron and supplemented with 15 μM deferoxamine (Desferal, Novartis). Bacterial colonies were harvested and cultured in RPMI media with 1% BSA medium and 0.06 μM deferoxamine with gentle agitation to reach the exponential phase of growth. Bacteria were then resuspended in physiological saline solution. Mice were infected intravenously with 200 μl (5×10^6 bacteria) of this bacterial suspension. A 10 mg dose of human holotransferrin (R&D Systems) was administered intraperitoneally just before infection. Mice were killed at 4 h after infection. Human skin grafts were carefully collected using a sterile cutter. The tissue was washed in PBS and fixed overnight at 4° C. in 4% paraformaldehyde in phosphate buffer. After washing in phosphate buffer, the specimens were embedded in OCT medium and then frozen at −80° C. Sections of the dermis (7 μm thick) were immobilized on Superfrost Plus microscope slides and subjected to immunofluorescence analysis. Sections were incubated with the primary antibodies for 1 h in PBS/3% BSA then DAPI was added to Alexa-conjugated secondary antibodies for 1 h. After additional washing, coverslips were mounted in glycergel (Dako) and were further analysed using a slide scanner (Lamina, Perkin Elmer). Analysis of the images was performed using ImageJ software (NIH). […]
We then analysed whether ANGPTL4 could provide a beneficial effect when administered with antibiotics.

LSALERRLSACGSAC (Peptide P9)
sepsis-associated mortality / survival rate [1]: reduced sepsis-associated mortality rate as efficiently as the full-length protein | protective effect on monolayer integrity (adherens junctions, cell detachment) of infected HDMECs [2]: completely inhibited infection-induced damages

WDEMNVLAHGLLQLGQGLREHAERTRSQLSALERRLSACGSACQGT (Peptide P1)
sepsis-associated mortality / survival rate [1]: reduced sepsis-associated mortality rate as efficiently as the full-length protein | protective effect on monolayer integrity (adherens junctions, cell detachment) of infected HDMECs [2]: sufficient to prevent loss of adherens junctions and cell detachment induced by infection as efficiently as the full-length protein

CO/N=C(\C(=O)N[C@@H]1C(=O)N2C(C(=O)O)=C(COC(C)=O)CS[C@H]12)c1csc(N)n1 [cefotaxime]
bactericidal effect (bacteraemia) [3]: strong bactericidal effect | mice survival [3]: associated with mice survival | thrombosis at 4 h post-infection [3]: did not prevent the triggering of thrombosis

SALERRLSACGS (Peptide P10)
sepsis-associated mortality / survival rate [1]: did not significantly increased the survival rate | protective effect on monolayer integrity (adherens junctions, cell detachment) of infected HDMECs [2]: no effect

From patent US20250163116A1, “NEW METHOD TO TREAT INFECTIOUS DISEASES” (INSERM (INSTITUT NATIONAL DE LA SANTÉ ET DE LA RECHERCHE …, priority 2022, published 2025)
